# Read-outs that look alike come from different tables or passages of the source.
# Target: T1, USP7 (Homo sapiens, UniProt Q93009)
# T1 construct: USP7, construct USP7 (208-1102) 6*His, Viva Biotech; 6xHis (C); purchased Viva Biotech
# Assay: USP7 Assay A (Ubitquin-Rhodamine 110 Assay)
# Format: biochemical
# Conditions: read-out: USP7_IC50
# Experimental: Each assay was performed in a final volume of 15 μL in assay buffer containing 20 mM Tris-HCl (pH 8.0, (1M Tris-HCl, pH 8.0 solution; Corning 46-031-CM)), 1 mM GSH (L-Glutathione reduced; Sigma #G4251), 0.03% BGG ([…], Sigma, #G7516-25G), and 0.01% Triton X-100 (Sigma, #T9284-10L). […] 5 μL of 2× enzyme was added to assay plates (pre-stamped with compound) preincubated with USP7 for 30 minutes and then 5 μL of 2×Ub-Rh110 was added to assay plates. […] Fluorescence was read on the Envision (Excitation at 485 nm and Emission at 535 nm; Perkin Elmer) or on the PheraSTAR (Excitation at 485 nm and Emission at 535 nm; BMG Labtech).
# Data from USP7 Assays A and B were reported as percent inhibition (inh) compared with control wells based on the following equation: % inh=1−((FLU−AveLow)/(AveHigh−AveLow)) where FLU=measured Fluorescence (See Tables 6-10). AveLow=average Fluorescence of no enzyme control (n=16). AveHigh=average Fluorescence of DMSO control (n=16). […] Data is fitted using the Levenburg Marquardt algorithm.
# [1] = USP7 assay A and B (table does not say which assay per compound)
# [2] = USP7 activity in USP7 assay A and B (table does not say which assay per compound)
# T1 sequence (Q93009 208-1102): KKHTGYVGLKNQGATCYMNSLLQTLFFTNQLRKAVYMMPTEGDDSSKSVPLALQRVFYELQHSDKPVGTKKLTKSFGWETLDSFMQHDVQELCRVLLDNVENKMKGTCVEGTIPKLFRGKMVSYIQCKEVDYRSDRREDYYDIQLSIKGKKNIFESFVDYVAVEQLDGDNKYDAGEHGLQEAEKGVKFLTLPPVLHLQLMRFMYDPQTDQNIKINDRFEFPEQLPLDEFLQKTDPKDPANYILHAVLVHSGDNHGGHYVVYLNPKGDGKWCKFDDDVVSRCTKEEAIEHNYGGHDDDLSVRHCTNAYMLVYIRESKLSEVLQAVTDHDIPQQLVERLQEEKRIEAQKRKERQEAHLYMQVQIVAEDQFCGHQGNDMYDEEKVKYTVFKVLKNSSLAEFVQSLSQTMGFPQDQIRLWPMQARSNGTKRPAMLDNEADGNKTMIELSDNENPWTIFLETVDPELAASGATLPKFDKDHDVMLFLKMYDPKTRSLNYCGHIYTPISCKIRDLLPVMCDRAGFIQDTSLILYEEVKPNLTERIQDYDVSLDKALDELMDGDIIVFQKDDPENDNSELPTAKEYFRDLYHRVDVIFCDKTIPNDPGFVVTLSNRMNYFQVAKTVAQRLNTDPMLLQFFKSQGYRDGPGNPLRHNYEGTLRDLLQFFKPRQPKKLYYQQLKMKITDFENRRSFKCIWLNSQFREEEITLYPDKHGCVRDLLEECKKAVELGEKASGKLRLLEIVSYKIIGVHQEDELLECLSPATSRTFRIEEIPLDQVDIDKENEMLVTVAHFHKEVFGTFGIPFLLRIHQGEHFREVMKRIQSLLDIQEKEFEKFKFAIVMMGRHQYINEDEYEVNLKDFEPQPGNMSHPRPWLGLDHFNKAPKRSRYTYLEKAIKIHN
SMILES,IC50 [1] [µM],IC50 [2] [µM]
CC1(C(=O)N2CCC(O)(Cn3cnc4c(cnn4-c4ccc(-c5cnn(C(F)F)c5)cc4)c3=O)CC2)CC1 [Compound I-1800],< 0.2,
"NC(=O)Cn1cc(-c2ccc(C(=O)N3CCC(O)(Cn4cnc5c(cnn5-c5ccc(F)cc5)c4=O)CC3)cc2)cn1 [Compound I-1002, 2-(4-(4-(4-((1-(4-fluorophenyl)-4-oxo-1H-pyrazolo[3,4-d]pyrimidin-5(4H)-yl)methyl)-4-hydroxypiperidine-1-carbonyl)phenyl)-1H-pyrazol-1-yl)acetamide]",,1 to 10
O=C(c1ccc(F)cc1)N1CCC(O)(Cn2cnc3c(cnn3-c3ccc(F)c(CO)c3)c2=O)CC1 [Compound I-640],1 to 10,
O=C(Nc1ccc(F)cc1)c1ccc(-n2ncc3c(=O)n(CC4(O)CCN(C(=O)C5CC5)CC4)cnc32)cc1 [Compound I-1492],1 to 10,
O=C(c1cnc(C2CC2)o1)N1CCC(O)(Cn2cnc3c(cnn3-c3ccc(Cl)cc3)c2=O)CC1 [Compound I-1130],0.2 to 1,
"Cc1ccc(-n2ncc3c(=O)n(CC4(O)CCN(C(=O)c5ccc(OC6CCC(O)CC6)cc5)CC4)cnc32)cc1 (centres unmarked) [Compound I-1141, 5-((4-Hydroxy-1-(4-(4-hydroxycyclohexyloxy)benzoyl)piperidin-4-yl)methyl)-1-p-tolyl-1H-pyrazolo[3,4-d]pyrimidin-4 (5H)-one]",1 to 10,
CS(=O)(=O)Nc1ccc(-n2ncc3c(=O)n(CC4(O)CCN(C(=O)C5CC5)CC4)cnc32)cc1 [Compound I-1431],1 to 10,
O=C(Nc1ccc(-n2ncc3c(=O)n(CC4(O)CCN(C(=O)C5CC5)CC4)cnc32)cc1)c1ccccc1F [Compound I-1380],1 to 10,
"CN1CCCCC1CCc1ccc(-n2ncc3c(=O)n(CC4(O)CCN(C(=O)c5ccc(F)cc5)CC4)cnc32)cc1 (centres unmarked) [Compound I-1007, 5-((1-(4-fluorobenzoyl)-4-hydroxypiperidin-4-yl)methyl)-1-(4-(2-(1-methylpiperidin-2-yl)ethyl)phenyl)-1H-pyrazolo[3,4-d]pyrimidin-4(5H)-one]",1 to 10,
Cc1ncc(-c2ccc(C(=O)N3CCC(O)(Cn4cnc5c(cnn5-c5ccc(Cl)cc5)c4=O)CC3)cc2)n1C [Compound I-1101],,1 to 10
O=C(Nc1ccccc1)c1ccc(-n2ncc3c(=O)n(CC4(O)CCN(C(=O)C5CC5)CC4)cnc32)cc1 [Compound I-1490],1 to 10,
CC1(C(=O)N2CCC(O)(Cn3cnc4c(cnn4-c4ccc(-c5cnn(C6CC6)c5)cc4)c3=O)CC2)CCC1 [Compound I-1720],,< 0.2
O=C(C1CC1)N1CCC(O)(Cn2cnc3c(cnn3-c3ccc(NS(=O)(=O)Cc4ccc(F)cc4)cc3)c2=O)CC1 [Compound I-1433],1 to 10,
CN(C)C(=O)N1CCC(O)(Cn2cnc3c(cnn3-c3ccc(NC4CC(C)(C)C4)cc3)c2=O)CC1 [Compound I-1544],1 to 10,
Cc1ncn(-c2ccc(-n3ncc4c(=O)n(CC5(O)CCN(C(=O)c6ccc(F)cc6)CC5)cnc43)cc2)n1 [Compound I-673],,1 to 10
O=C(C1CC1)N1CCC(O)(Cn2cnc3c(cnn3-c3ccc(C(F)(F)F)cc3)c2=O)CC1 [Compound I-28],1 to 10,
C[C@H](CC(=O)N1CCC(O)(Cn2cnc3c(cnn3-c3ccc(N4CC[C@@](C)(O)C4)cc3)c2=O)CC1)n1cccn1 [Compound I-840],,1 to 10
"O=C(C1CC1)N1CCC(O)(Cn2cnc3c(cnn3-c3ccc(C4CCNCC4)cc3)c2=O)CC1 [Compound I-843, 5-((1-(cyclopropanecarbonyl)-4-hydroxypiperidin-4-yl)methyl)-1-(4-(piperidin-4-yl)phenyl)-1H-pyrazolo[3,4-d]pyrimidin-4(5H)-one]",0.2 to 1,
CC1(C(=O)N2CCC(O)(Cn3cnc4c(cnn4-c4ccc(-c5cnn(C6CCOCC6)c5)cc4)c3=O)CC2)CC1 [Compound I-1722],,< 0.2
O=C(C[C@@H](C(F)F)n1ccc(F)n1)N1CCC(O)(Cn2cnc3c(cnn3-c3ccc(C(F)(F)F)cc3)c2=O)CC1 [Compound I-1037],,1 to 10
"CNS(=O)(=O)Nc1ccc(-n2ncc3c(=O)n(CC4(O)CCN(C(=O)C5CC5)CC4)cnc32)cc1 [Compound I-504, 5-[(1-Cyclopropanecarbonyl-4-hydroxypiperidin-4-yl)methyl]-1-{4-[(methylsulfamoyl)amino]phenyl}-1H,4H,5H-pyrazolo[3,4-d]pyrimidin-4-one]",1 to 10,
CN1CC(O)(COc2ccc(-n3ncc4c(=O)n(CC5(O)CCN(C(=O)c6ccc(F)cc6)CC5)cnc43)cc2)C1 [Compound I-816],,< 0.2
CC1(C(=O)N2CCC(O)(Cn3cnc4c(cnn4-c4ccc(-n5cc(Cl)cn5)cc4)c3=O)CC2)CC1 [Compound I-1045],,< 0.2
O=C(c1ccc(OC(F)F)cc1)N1CCC(O)(Cn2cnc3c(cnn3-c3cnn(C4CC4)c3)c2=O)CC1 [Compound I-705],1 to 10,
C[C@H](CC(=O)N1CCC(O)(Cn2cnc3c(cnn3-c3ccccn3)c2=O)CC1)c1ccccc1 [Compound I-70],0.2 to 1,
C#CC(=O)NC1CC(C(=O)N2CCC(O)(Cn3cnc4c(cnn4-c4ccc(F)cc4)c3=O)CC2)C1 (centres unmarked) [Compound I-950],1 to 10,
CN1CCN(c2ccc(C(=O)N3CCC(O)(Cn4cnc5c(cnn5-c5ccc(F)cc5)c4=O)CC3)cc2)CC1 [Compound I-606],1 to 10,

SMILES,IC50 [1] [µM],IC50 [2] [µM]
O=C(C1CC1)N1CCC(O)(Cn2cnc3c(cnn3-c3ccc(-c4ccc(O[C@@H]5CCNC5)cc4)cc3)c2=O)CC1 [Compound I-842],0.2 to 1,
"COC1CCC(Oc2ccc(-n3ncc4c(=O)n(CC5(O)CCN(C(=O)C6(C)CC6)CC5)cnc43)cc2)CC1 (single isomer, unassigned) [Compounds I-1116]",,0.2 to 1
Cc1ccc(-n2ncc3c(=O)n(CC4(O)CCN(C(=O)C5CC(Oc6ccccn6)C5)CC4)cnc32)cc1 (centres unmarked) [Compound I-917],,1 to 10
CN1CCC(c2ccc(C(=O)N3CCC(O)(Cn4cnc5c(cnn5-c5ccc(F)cc5)c4=O)CC3)cc2)CC1 [Compound I-605],> 10,
O=C(c1cccc(CN2CCCC2)c1)N1CCC(O)(Cn2cnc3c(cnn3-c3ccc(F)cc3)c2=O)CC1 [Compound I-510],> 10,
Cc1noc(C)c1S(=O)(=O)Nc1ccc(-n2ncc3c(=O)n(CC4(O)CCN(C(=O)C5CC5)CC4)cnc32)cc1 [Compound I-1421],1 to 10,
O=C(N[C@H]1CNCC1F)N1CCC(O)(Cn2cnc3c(cnn3-c3ccc(-c4ccccc4)cc3)c2=O)CC1 (some centres unmarked) [Compound I-664],1 to 10,
Cc1cc(C)c(-n2ncc3c(=O)n(CC4(O)CCN(C(=O)C5CC5)CC4)cnc32)c(C)c1 [Compound I-26],> 10,
Cn1ccc(NC2CCC(C(=O)N3CCC(O)(Cn4cnc5c(ccn5-c5ccc(F)cc5)c4=O)CC3)CC2)n1 (centres unmarked) [Compound I-1041],,0.2 to 1
C=CC(=O)N1CC[C@]1(C)C(=O)N1CCC(O)(Cn2cnc3c(cnn3-c3ccc(F)cc3)c2=O)CC1 [Compound I-580],0.2 to 1,
O=C(c1cnc(C2CC2)o1)N1CCC(O)(Cn2cnc3c(cnn3-c3ccc(-n4cccn4)cc3)c2=O)CC1 [Compound I-780],,< 0.2
C#CC(=O)N[C@@H]1CC[C@@H]1C(=O)N1CCC(O)(Cn2cnc3c(cnn3-c3ccc(F)cc3)c2=O)CC1 [Compound I-952],0.2 to 1,
Cn1cc(C(=O)N2CCC(O)(Cn3cnc4c(cnn4-c4ccc(F)cc4)c3=O)CC2)c(Cn2cccn2)n1 [Compound I-921],,1 to 10
CC(C)(O)Cn1cc(-c2ccc(-n3ncc4c(=O)n(CC5(O)CCN(C(=O)c6ccc(F)cc6)CC5)cnc43)cc2)cn1 [Compound I-1617],,0.2 to 1
CC1(C(=O)N2CCC(O)(Cn3cnc4c(cnn4-c4ccc(-c5cnn(C6CCOCC6)c5)cc4)c3=O)CC2)CCC1 [Compound I-1719],,< 0.2
O=C(c1nnc(C2CC2)o1)N1CCC(O)(Cn2cnc3c(cnn3-c3ccc(F)cc3)c2=O)CC1 [Compound I-556],,1 to 10
O=C(c1ccc(C2CC2)cc1)N1CCC(O)(Cn2cnc3c(cnn3-c3ccc(F)cc3)c2=O)CC1 [Compound I-304],1 to 10,
CN(C)S(=O)(=O)Nc1ccc(-n2ncc3c(=O)n(CC4(O)CCN(C(=O)C5CC5)CC4)cnc32)cc1 [Compound I-505],1 to 10,
O=C(C1CC1)N1CCC(O)(Cn2cnc3c(cnn3-c3ccc(-c4ccccc4)cc3)c2=O)CC1 [Compound I-276],1 to 10,
O=C(c1ccc(-n2cc(CO)cn2)cc1)N1CCC(O)(Cn2cnc3c(cnn3-c3ccc(F)cc3)c2=O)CC1 [Compound I-612],,1 to 10
CC(=O)N1CCC(O)(Cn2cnc3c(cnn3-c3ccccc3)c2=O)CC1 [Compound I-154],1 to 10,
O=C(c1nnc(C2CC2)o1)N1CCC(O)(Cn2cnc3c(cnn3-c3ccc(Cl)cc3)c2=O)CC1 [Compound I-1091],,1 to 10
CC(F)(F)c1ccc(C(=O)N2CCC(O)(Cn3cnc4c(cnn4-c4ccccc4)c3=O)CC2)cc1 [Compound I-294],1 to 10,
O=C(C1CC1)N1CCC(O)(Cn2cnc3c(cnn3-c3cccc(-c4cccc(O)c4)c3)c2=O)CC1 [Compound I-385],1 to 10,
O=C(C1CC1)N1CCC(O)(Cn2cnc3c(cnn3-c3ccc(-c4ccc(N5CC[C@@H](O)C5)nc4)cc3)c2=O)CC1 [Compound I-687],,0.2 to 1
O=C(c1cccn1Cc1ccccc1)N1CCC(O)(Cn2cnc3c(cnn3-c3ccccc3)c2=O)CC1 [Compound I-150],< 0.2,
